Test results taken from patent US20030013099A1, “Genes regulated by DNA methylation in colon tumors” (priority 2001, published 2003).

Key:
[1] = test system: MIN mouse; conditions: Aza treatment in combination with a genetic reduction in DNA methyltransferase I activity; cited from earlier work
[2] = test system: HCT116 cells; assay: microarray differential expression, HCT116 cells treated with 500 nM Aza; format: cell-based, human; conditions: vs untreated, log base 2, negative = upregulation
Description: HT29 cells were derived from a Grade II adenocarcinoma of the colon obtained from a person. HCT116 cells are a subpopulation of malignant cells isolated from a primary cell culture of a single human colonic carcinoma (Brattain et al. (1981) Cancer Res 41:1751-6). HMEC cells are a primary human epithelial cell line derived from the breast tissue of a normal donor. HT29 and HCT116 colorectal carcinoma cells (American Type Culture Collection, Manassas Va.) were cultured in McCoy's medium supplemented with 10% fetal bovine serum (Invitrogen) at 37° C. and 5% CO2. Treated cells were exposed to 500 nM 5-aza-2-deoxycytidine (Aza; Sigma-Aldrich) 24 hours after passage in complete culture medium. Control cultures were treated in parallel with phosphate buffered saline vehicle. After twenty-four hours, culture medium was replaced with drug-free medium. Control and Aza-treated cells were subcultured at equal densities at 1 and 5 days after the initial treatment, and proliferation was measured at the subsequent time point using a Coulter counter (Beckman Coulter, Fullerton Calif.). Cells were harvested 5 days after the initial treatment.
Cells were harvested and lysed in 1 ml of TRIZOL reagent (5×10^6 cells/ml; Invitrogen). The lysates were vortexed thoroughly and incubated at room temperature for 2-3 minutes and extracted with 0.5 ml chloroform. The extract was mixed, incubated at room temperature for 5 minutes, and centrifuged at 16,000× g for 15 minutes at 4° C. The aqueous layer was collected, and an equal volume of isopropanol was added. Samples were mixed, incubated at room temperature for 10 minutes, and centrifuged at 16,000× g for 20 minutes at 4° C. The supernatant was removed, and the RNA pellet was washed with 1 ml of 70% ethanol, centrifuged at 16,000× g at 4° C., and resuspended in RNAse-free water. The concentration of the RNA was determined by measuring the optical density at 260 nm.
Poly(A) RNA was prepared using an OLIGOTEX mRNA kit (Qiagen) with the following modifications: OLIGOTEX beads were washed in tubes instead of on spin columns, resuspended in elution buffer, and then loaded onto spin columns to recover mRNA. To obtain maximum yield, the mRNA was eluted twice.
Each poly(A) RNA sample was reverse transcribed using MMLV reverse-transcriptase, 0.05 pg/μl oligo-d(T) primer (21mer), 1× first strand buffer, 0.03 units/ul RNAse inhibitor, 500 uM dAT?, 500 uM dGTP, 500 uM dTTP, 40 uM dCTP, and 40 uM either dCTP-Cy3 or dCTP-Cy5 (APB). The reverse transcription reaction was performed in a […] volume containing 200 ng poly(A) RNA using the GEMBRIGHT kit (Incyte Genomics). Specific control poly(A) RNAs (YCFRO6, YCFR45, YCFR67, YCFR85, YCFR43, YCFR22, YCFR23, YCFR25, YCFR44, YCFR26) were synthesized by in vitro transcription from non-coding yeast genomic DNA (W. Lei, unpublished). As quantitative controls, control mRNAs (YCFRO6, YCFR45, YCFR67, and YCFR85) at 0.002 ng, 0.02 ng, 0.2 ng, and 2 ng were diluted into reverse transcription reaction at ratios of 1:100,000, 1:10,000, 1:1000, 1:100 (w/w) to sample mRNA, respectively. To sample differential expression patterns, control mRNAs (YCFR43, YCFR22, YCFR23, YCFR25, YCFR44, YCFR26) were diluted into reverse transcription reaction at ratios of 1:3, 3:1, 1:10, 10:1, 1:25, 25:1 (w/w) to sample mRNA. Reactions were incubated at 37° C. for 2 hours, treated with […] of 0.5M sodium hydroxide, and incubated for 20 minutes at 85° C. to the stop the reaction and degrade the RNA.
cDNAs were purified using two successive CHROMA SPIN 30 gel filtration spin columns (Clontech). Cy3- and Cy5-labeled reaction samples were combined as described below and ethanol precipitated using […] of 100% ethanol. The cDNAs were then dried to completion using a SpeedVAC system (Savant Instruments, Holbrook N.Y.) and resuspended in 14 μl 5× SSC, 0.2% SDS. […]

[3] = test system: HT-29 cells; conditions: Aza treatment; inhibition parallels induction of IFN responsive genes; cited from earlier work
[4] = test system: HT-29 cells; conditions: cultured HT-29 cells, microarray experiments and other methods; cited from earlier work

Nc1ncn([C@H]2C[C@H](O)[C@@H](CO)O2)c(=O)n1 [Aza, 5-aza-2-deoxycytidine]
polyp formation [1]: reduced polyp formation
differential expression, Clone ID 2416222, HCT116 t/Aza (5d) ([2]; SEQ ID NO:1 hypothetical protein): −1.72
differential expression, Clone ID 4103545, HCT116 t/Aza (5d) ([2]; SEQ ID NO:2 Incyte Unique): −1.35
differential expression, Clone ID 322569, HCT116 t/Aza (5d) ([2]; SEQ ID NO:3 interferon-inducible protein): −1.17
differential expression, Clone ID 5322134, HCT116 t/Aza (5d) ([2]; SEQ ID NO:5 chromosome 6p21.3, HLA Class I region): −1.72
differential expression, Clone ID 1698458, HCT116 t/Aza (5d) ([2]; SEQ ID NO:6 unnamed protein product): −1.32
differential expression, Clone ID 1871523, HCT116 t/Aza (5d) ([2]; SEQ ID NO:7 KIAA1046 protein): −0.85
differential expression, Clone ID 6024084, HCT116 t/Aza (5d) ([2]; SEQ ID NO:8 putative tumor antigen): −2.66
differential expression, Clone ID 3810006, HCT116 t/Aza (5d) ([2]; SEQ ID NO:9 Incyte Unique): −0.85
differential expression, Clone ID 4508879, HCT116 t/Aza (5d) ([2]; SEQ ID NO:10 Incyte Unique): −0.89
differential expression, Clone ID 4225379, HCT116 t/Aza (5d) ([2]; SEQ ID NO:11 U 6 RNA): −0.89
differential expression, Clone ID 3463713, HCT116 t/Aza (5d) ([2]; SEQ ID NO:12 cDNA clone ZD16H10): −1.46
differential expression, Clone ID 2998017, HCT116 t/Aza (5d) ([2]; SEQ ID NO:13, 14 T-cell receptor gamma): −1.23
differential expression, Clone ID 4318273, HCT116 t/Aza (5d) ([2]; SEQ ID NO:15 pTR5 repetitive sequence): −1.07
differential expression, Clone ID 1649414, HCT116 t/Aza (5d) ([2]; SEQ ID NO:16 Hep27 protein): −1.00
differential expression, Clone ID 1684742, HCT116 t/Aza (5d) ([2]; SEQ ID NO:18 cDNA FLJ20222): −0.89
differential expression, Clone ID 2825816, HCT116 t/Aza (5d) ([2]; SEQ ID NO:19 KIAA0412): −0.89
differential expression, Clone ID 2440943, HCT116 t/Aza (5d) ([2]; SEQ ID NO:21 Incyte Unique): −1.00
differential expression, Clone ID 1294339, HCT116 t/Aza (5d) ([2]; SEQ ID NO:22 PDGF-B): −0.89
differential expression, Clone ID 5104741, HCT116 t/Aza (5d) ([2]; SEQ ID NO:23 cDNA FLJ10570): −1.23
differential expression, Clone ID 1855389, HCT116 t/Aza (5d) ([2]; SEQ ID NO:24 pTR7 repetitive sequence): −1.51
differential expression, Clone ID 5207613, HCT116 t/Aza (5d) ([2]; SEQ ID NO:25 chromosome 21 segment HS21C049): −1.67
differential expression, Clone ID 3207902, HCT116 t/Aza (5d) ([2]; SEQ ID NO:26 hypothetical protein): −0.89
differential expression, Clone ID 4999769, HCT116 t/Aza (5d) ([2]; SEQ ID NO:27 ZNFpT17): −1.09
differential expression, Clone ID 408886, HCT116 t/Aza (5d) ([2]; SEQ ID NO:28 transketolase): −2.32
differential expression, Clone ID 4764233, HCT116 t/Aza (5d) ([2]; SEQ ID NO:30 GAGE-8): −1.79
differential expression, Clone ID 2511379, HCT116 t/Aza (5d) ([2]; SEQ ID NO:31 GAGE-7B): −1.34
differential expression, Clone ID 2471817, HCT116 t/Aza (5d) ([2]; SEQ ID NO:33 cDNA clone YU62C03): −0.89
differential expression, Clone ID 3333736, HCT116 t/Aza (5d) ([2]; SEQ ID NO:34 MAGE-11 antigen): −1.38
differential expression, Clone ID 1304365, HCT116 t/Aza (5d) ([2]; SEQ ID NO:35 GAGE-8): −1.78
differential expression, Clone ID 2657056, HCT116 t/Aza (5d) ([2]; SEQ ID NO:37, 38 MAGE-4b antigen): −1.58
differential expression, Clone ID 2507719, HCT116 t/Aza (5d) ([2]; SEQ ID NO:39 MAGE-9 antigen): −1.70
differential expression, Clone ID 4688, HCT116 t/Aza (5d) ([2]; SEQ ID NO:41 MAGE-1): −1.14
differential expression, Clone ID 2068708, HCT116 t/Aza (5d) ([2]; SEQ ID NO:42 HM74): −0.46
differential expression, Clone ID 23770, HCT116 t/Aza (5d) ([2]; SEQ ID NO:43 1-8D): −0.72
differential expression, Clone ID 1616783, HCT116 t/Aza (5d) ([2]; SEQ ID NO:45 Incyte Unique): −0.80
differential expression, Clone ID 820942, HCT116 t/Aza (5d) ([2]; SEQ ID NO:46 cDNA FLJ20120): −0.26
differential expression, Clone ID 891322, HCT116 t/Aza (5d) ([2]; SEQ ID NO:47 Incyte Unique): −0.58
differential expression, Clone ID 2755836, HCT116 t/Aza (5d) ([2]; SEQ ID NO:48 U5 A RNA): −0.58
differential expression, Clone ID 1227521, HCT116 t/Aza (5d) ([2]; SEQ ID NO:49 phospholipid scramblase 1): −0.58
differential expression, Clone ID 2200842, HCT116 t/Aza (5d) ([2]; SEQ ID NO:50 retinoid inducible gene 1): 0.00
differential expression, Clone ID 2238363, HCT116 t/Aza (5d) ([2]; SEQ ID NO:51 interferon induced): −0.24
differential expression, Clone ID 1495382, HCT116 t/Aza (5d) ([2]; SEQ ID NO:53 TRAIL): −0.26
differential expression, Clone ID 1998269, HCT116 t/Aza (5d) ([2]; SEQ ID NO:55 rhoB): −0.63
differential expression, Clone ID 1919287, HCT116 t/Aza (5d) ([2]; SEQ ID NO:56 hepatitis C-associated microtubular aggregate): 0.00
differential expression, Clone ID 2637446, HCT116 t/Aza (5d) ([2]; SEQ ID NO:57 HE4 protein): −0.29
differential expression, Clone ID 1962141, HCT116 t/Aza (5d) ([2]; SEQ ID NO:58 Similar to keratin 7): −0.92
differential expression, Clone ID 4933404, HCT116 t/Aza (5d) ([2]; SEQ ID NO:60 Incyte Unique): −2.08
differential expression, Clone ID 2150288, HCT116 t/Aza (5d) ([2]; SEQ ID NO:61 Keratin 8): −0.92
differential expression, Clone ID 2697455, HCT116 t/Aza (5d) ([2]; SEQ ID NO:61 Keratin 8): −1.14
growth of HT-29 cells in culture [3]: inhibits growth
expression of genes related to interferon (IFN) signaling [4]: leads to specific expression of several genes related to interferon (IFN) signaling
